Data reported in US20230295152A1 (SENDA BIOSCIENCES, INC., priority 2019, published 2023).
pIC50: −log10 of the molar value. In brackets after ≈: the same amount, converted by molar mass. Where two headings read alike, the source gives them in different places.

Experiments:
[1] = molecular target: T1, AHR (Homo sapiens, UniProt P35869); test: DRE-Luciferase Reporter Assay, HepG2 AhR-Lucia reporter cells; assay type: cell-based; conditions: with AHR activating ligand at EC50, read-out: HepG2-Luc IC50
T1 construct: other cell line with a DRE-luciferase reporter stably transfected; endogenous in cells; host or cells: HepG2 AhR-Lucia reporter cells
T1 sequence (P35869 11-848): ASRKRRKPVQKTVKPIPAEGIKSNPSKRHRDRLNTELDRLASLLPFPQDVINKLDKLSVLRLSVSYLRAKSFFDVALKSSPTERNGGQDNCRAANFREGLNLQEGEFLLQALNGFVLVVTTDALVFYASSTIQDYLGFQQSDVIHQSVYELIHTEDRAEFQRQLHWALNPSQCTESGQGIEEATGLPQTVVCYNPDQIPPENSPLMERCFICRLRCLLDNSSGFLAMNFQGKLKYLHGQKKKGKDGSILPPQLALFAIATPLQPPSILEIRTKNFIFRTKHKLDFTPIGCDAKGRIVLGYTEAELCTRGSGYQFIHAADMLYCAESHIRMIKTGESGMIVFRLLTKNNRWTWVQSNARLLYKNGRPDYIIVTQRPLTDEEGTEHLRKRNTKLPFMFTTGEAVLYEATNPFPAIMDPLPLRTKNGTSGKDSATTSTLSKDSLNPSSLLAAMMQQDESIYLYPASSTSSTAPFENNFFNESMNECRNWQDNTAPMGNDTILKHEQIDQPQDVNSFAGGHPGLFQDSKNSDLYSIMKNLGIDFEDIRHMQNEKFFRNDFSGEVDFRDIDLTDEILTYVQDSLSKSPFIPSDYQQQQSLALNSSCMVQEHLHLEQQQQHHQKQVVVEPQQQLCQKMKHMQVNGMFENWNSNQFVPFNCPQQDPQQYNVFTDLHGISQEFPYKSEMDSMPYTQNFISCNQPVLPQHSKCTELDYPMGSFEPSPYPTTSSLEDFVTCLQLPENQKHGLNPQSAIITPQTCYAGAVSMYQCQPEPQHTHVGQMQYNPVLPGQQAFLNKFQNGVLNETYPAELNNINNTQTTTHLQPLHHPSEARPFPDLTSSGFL
Method in brief: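 Antagonism read as inhibition of agonist-driven secreted luciferase in stably DRE-reporter-transfected cells such as HepG2 AhR-Lucia. Agonist ligand at EC50 concentration added 1 hr post-plating alongside antagonist (log series, top 100 uM); supernatant read at 24 or 48 h, IC50 derived against agonist-only maximum.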

[2] = Solubility Determination Assay in PBS pH 1.6 and pH 7.4; assay type: physicochemical; conditions: PBS buffer, aqueous buffer, kinetic from dmso stock
Experimental: The stock solutions of test compounds and control compound progesterone were prepared in DMSO at the concentrations of 10 mM. 15 μL of stock solution (10 mM) of each sample was placed in order into their proper 96-well rack. 485 μL of PBS pH 1.6 and pH 7.4 were added into each vial of the cap-less Solubility Sample plate. The assay was performed in singlet. One stir stick was added to each vial and then the vial was sealed using a molded PTFE/Silicone plug. […] After completion of the 2 hours, plugs were removed and the stir sticks were removed using a big magnet. The samples from the Solubility Sample plate were transferred into the filter plate. Using the Vacuum Manifold, all the samples were filtered. An aliquot of 5 μL was taken from the filtrate followed by addition of 495 μL of a mixture of H2O and acetonitrile containing internal standard (1:1). A certain proportion of ultrapure water was used to dilute the diluent according to the peak shape. The dilution factor was changed according to the solubility values and the LC-MS signal response.
From the 10 mM DMSO STD plate, 6 μL was transferred into the remaining empty plate, and then 194 μL of DMSO were added to that plate to have a STD concentration of 300 μM. From the 300 μM DMSO STD plate, 5 μL were transferred into the remaining empty plate, and then 495 μL of a mixture of H2O and acetonitrile containing internal standard (1:1) were added to that plate to have a final STD concentration of 3 μM. A certain proportion of ultrapure water was used to dilute the diluent according to the peak shape. The concentrations of the standard samples were changed according to the LC-MS signal response.
The plate was placed into the well plate autosampler. The samples were evaluated by LC-MS/MS analysis.
All calculations were carried out using Microsoft Excel.
The filtrate was analyzed and quantified against a standard of known concentration using LC coupled with mass spectral peak identification and quantitation. Solubility values of the test compound and control compound were calculated as follows: […]
Any value of the compounds that was not within the specified limits was rejected and the experiment was repeated.
“+++” indicates a solubility value equal to or greater than 1 μM, “++” indicates a solubility value between 0.1 and 1 μM, and “+” indicates a solubility value less than 0.1 μM.

[3] = PBS pH 1.6, 25° C., read-out: Aq. Solubility at pH = 1.6
[4] = PBS pH 7.4, 25° C., read-out: Aq. Solubility at pH = 7.4

| SMILES | pIC50 [1] | solubility at 2 h [2, 3] [µM] | solubility at 2 h [2, 4] [µM] |
| --- | --- | --- | --- |
| O=c1c2cc(-c3ccc(Cl)cc3)nc(-c3cccnc3)c2ncn1C[C@@H](O)C(F)(F)F (single isomer, unassigned) [185 enantiomer 1] | > 7.00 | ≥ 1 | 0.1 to 1 (≈ 0.0447 to 0.447 µg/mL) |
| O=c1c2cc(-c3ccc(Cl)cc3)nc(-c3cccnc3)c2ncn1C[C@H](O)C(F)(F)F (single isomer, unassigned) [185 enantiomer 2] | > 7.00 | ≥ 1 | 0.1 to 1 (≈ 0.0447 to 0.447 µg/mL) |
| O=c1c2cc(-c3ccc(Cl)cc3)nc(-c3cccnc3)c2ncn1[C@@H]1COC[C@@H]1O (stereo in doubt) [Compound 71] | > 7.00 | ≥ 1 | ≥ 1 |
| C[C@@H](CO)n1cnc2c(-c3cncc(F)c3)nc(-c3ccc(OC(F)(F)F)cc3)cc2c1=O [Compound 1, (S)-8-(5-fluoropyridin-3-yl)-3-(1-hydroxypropan-2-yl)-6-(4-(trifluoromethoxy)phenyl)pyrido[3,4-d]pyrimidin-4(3H)-one] | > 7.00 | – | 0.1 to 1 (≈ 0.046 to 0.46 µg/mL) |
| C[C@@H](CO)n1cnc2c(-c3cccc(F)c3)nc(-c3ccc(Cl)cc3)cc2c1=O [Compound 7] | > 7.00 | 0.1 to 1 (≈ 0.041 to 0.41 µg/mL) | < 0.1 |
| C[C@@H](CO)n1cnc2c(-c3cccc(F)c3)nc(-c3ccc(C(F)(F)F)nc3)cc2c1=O [Compound 8] | > 7.00 | – | ≥ 1 |
| CC(C)(O)Cn1cnc2c(-c3cccnc3)nc(-c3ccc(C(F)(F)F)nc3)cc2c1=O [Compound 9] | > 7.00 | ≥ 1 | ≥ 1 |
| C[C@@H](CO)n1cnc2c(-c3cccnc3)nc(-c3ccc(C(F)(F)F)nc3)cc2c1=O [Compound 12] | > 7.00 | ≥ 1 | ≥ 1 |
| CC(C)(O)Cn1cnc2c(-c3cccnc3)nc(-c3ccc(C(F)(F)F)cc3)cc2c1=O [Compound 16] | > 7.00 | ≥ 1 | ≥ 1 |
| Cc1ccc(-c2cc3c(=O)n([C@@H](C)CO)cnc3c(-c3cccnc3)n2)cc1 [Compound 17, (S)-3-(1-hydroxypropan-2-yl)-8-(pyridin-3-yl)-6-(p-tolyl)pyrido[3,4-d]pyrimidin-4(3H)-one] | > 7.00 | ≥ 1 | ≥ 1 |
| CC(C)(O)Cn1cnc2c(-c3cccnc3)nc(-c3ccc(Cl)cc3)cc2c1=O [Compound 18] | > 7.00 | ≥ 1 | ≥ 1 |
| Cn1cc(-c2nc(-c3ccc(Cl)cc3)cc3c(=O)n(CC(C)(C)O)cnc23)cn1 [Compound 21] | > 7.00 | ≥ 1 | ≥ 1 |
| C[C@@H](CO)n1cnc2c(-c3cccnc3)nc(-c3ccc(OC(F)(F)F)cc3)cc2c1=O [Compound 22] | > 7.00 | ≥ 1 | ≥ 1 |
| C[C@@H](CO)n1cnc2c(-c3cccnc3)nc(-c3ccc(C(F)(F)F)cc3)cc2c1=O [Compound 23] | > 7.00 | ≥ 1 | ≥ 1 |
| C[C@@H](CO)n1cnc2c(-c3cnn(C)c3)nc(-c3ccc(OC(F)(F)F)cc3)cc2c1=O [Compound 25] | > 7.00 | 0.1 to 1 (≈ 0.0445 to 0.445 µg/mL) | < 0.1 |
| C[C@@H](CO)n1cnc2c(-c3cnn(C)c3)nc(-c3ccc(Cl)cc3)cc2c1=O [Compound 27] | > 7.00 | 0.1 to 1 (≈ 0.0396 to 0.396 µg/mL) | 0.1 to 1 (≈ 0.0396 to 0.396 µg/mL) |
| C[C@H](n1cnc2c(-c3cnn(C)c3)nc(-c3ccc(Cl)cc3)cc2c1=O)C(C)(C)O [Compound 30] | > 7.00 | – | 0.1 to 1 (≈ 0.0424 to 0.424 µg/mL) |
| C[C@@H](CO)n1cnc2c(-c3cccnc3)nc(-c3ccc(C(F)(F)F)cn3)cc2c1=O [Compound 46, (S)-3-(1-hydroxypropan-2-yl)-8-(pyridin-3-yl)-6-(5-(trifluoromethyl)pyridin-2-yl)pyrido[3,4-d]pyrimidin-4(3H)-one] | > 7.00 | ≥ 1 | ≥ 1 |

Further lines, results first:

| pIC50 [1] | solubility at 2 h [2, 3] [µM] | solubility at 2 h [2, 4] [µM] | SMILES |
| --- | --- | --- | --- |
| > 7.00 | – | 0.1 to 1 (≈ 0.0424 to 0.424 µg/mL) | C[C@@H](n1cnc2c(-c3cnn(C)c3)nc(-c3ccc(Cl)cc3)cc2c1=O)C(C)(C)O [Compound 31] |
| > 7.00 | – | < 0.1 | C[C@@H](n1cnc2c(-c3cccnc3)nc(-c3ccc(Cl)cc3)cc2c1=O)C(C)(C)O [Compound 33] |
| > 7.00 | ≥ 1 | ≥ 1 | C[C@H](n1cnc2c(-c3cccnc3)nc(-c3cccnc3)cc2c1=O)C(C)(C)O [Compound 34] |
| > 7.00 | – | 0.1 to 1 (≈ 0.0431 to 0.431 µg/mL) | C[C@@H](CO)n1cnc2c(-n3ccnc3)nc(-c3ccc(OC(F)(F)F)cc3)cc2c1=O [Compound 44, (S)-3-(1-hydroxypropan-2-yl)-8-(1H-imidazol-1-yl)-6-(4-(trifluoromethoxy)-phenyl)pyrido[3,4-d]pyrimidin-4(3H)-one] |
| > 7.00 | – | 0.1 to 1 (≈ 0.0444 to 0.444 µg/mL) | C[C@@H](CO)n1cnc2c(-c3cccc(F)c3)nc(-c3ccc(C(F)(F)F)cn3)cc2c1=O [Compound 47, (S)-8-(3-fluorophenyl)-3-(1-hydroxypropan-2-yl)-6-(5-(trifluoromethyl)pyridin-2-yl)pyrido[3,4-d]pyrimidin-4(3H)-one] |
| > 7.00 | ≥ 1 | ≥ 1 | C[C@@H](CO)n1cnc2c(-c3cccnc3)nc(-c3ccc(OC(F)(F)F)nc3)cc2c1=O [Compound 50] |
| > 7.00 | 0.1 to 1 (≈ 0.043 to 0.43 µg/mL) | 0.1 to 1 (≈ 0.043 to 0.43 µg/mL) | CC(C)(O)Cn1cnc2c(-c3cn[nH]c3)nc(-c3ccc(C(F)(F)F)nc3)cc2c1=O [Compound 51] |
| > 7.00 | ≥ 1 | ≥ 1 | CC(C)(O)Cn1cnc2c(-c3cnsc3)nc(-c3ccc(C(F)(F)F)nc3)cc2c1=O [Compound 54] |
| > 7.00 | ≥ 1 | ≥ 1 | C[C@@H](CO)n1cnc2c(-c3cnsc3)nc(-c3ccc(C(F)(F)F)nc3)cc2c1=O [Compound 55] |
| > 7.00 | ≥ 1 | ≥ 1 | O=c1c2cc(-c3ccc(C(F)(F)F)nc3)nc(-c3cccnc3)c2ncn1C[C@H](O)C(F)(F)F [Compound 57] |
| > 7.00 | < 0.1 | < 0.1 | C[C@@H](CO)n1cnc2c(-c3cnsc3)nc(-c3ccc(Cl)cc3)cc2c1=O [Compound 58] |
| > 7.00 | ≥ 1 | ≥ 1 | Cn1cc(-c2nc(-c3ccc(C(F)(F)F)nc3)cc3c(=O)n(CC(C)(C)O)cnc23)cn1 [Compound 60] |
| > 7.00 | ≥ 1 | ≥ 1 | C[C@@H](CO)n1cnc2c(-c3cccnc3)nc(-c3cnc(C4CC4)s3)cc2c1=O [Compound 66] |
| > 7.00 | ≥ 1 | ≥ 1 | C[C@@H](CO)n1cnc2c(-c3cnn(C)c3)nc(-c3ccc(C(F)(F)F)nc3)cc2c1=O [Compound 68] |
